# According to patent US10508085B2, “Compounds and methods for IDO and TDO modulation, and indications therefor” (Plexxikon Inc., priority 2016, dated 2019):
# Key:
# [1] = biological target: T1, Human Indoleamine 2,3-dioxygenase (IDO) (Homo sapiens, UniProt P14902); assay: Human IDO enzymatic assay (kynurenine level); format: biochemical; conditions: 6 nM IDO, 10 μM L-Trp; geometric mean; read-out: IDO1 GMean: IC50 (μM) (Biochemical Assay)
# T1 construct: His tag (N); made in house; host or cells: E. coli
# T1 sequence (P14902 whole entry): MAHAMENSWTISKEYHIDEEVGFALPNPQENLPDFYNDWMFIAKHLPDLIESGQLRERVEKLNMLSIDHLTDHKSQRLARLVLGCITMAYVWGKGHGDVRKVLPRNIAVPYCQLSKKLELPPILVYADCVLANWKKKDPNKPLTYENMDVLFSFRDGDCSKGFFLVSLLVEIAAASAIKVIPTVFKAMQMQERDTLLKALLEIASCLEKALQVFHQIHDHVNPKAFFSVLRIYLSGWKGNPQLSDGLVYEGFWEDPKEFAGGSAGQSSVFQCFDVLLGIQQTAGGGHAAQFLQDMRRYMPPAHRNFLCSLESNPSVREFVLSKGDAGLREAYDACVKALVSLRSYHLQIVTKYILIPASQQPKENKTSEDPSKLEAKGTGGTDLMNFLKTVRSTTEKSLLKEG
# Method in brief: (§1)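 Reactions were stopped with TCA, converting N-formylkynurenine to kynurenine for quantitation, with IC50 by nonlinear regression. IDO: 6 nM enzyme, 10 μM L-Trp, 20 min RT. TDO: 1 nM enzyme, 350 μM L-Trp, 70 min RT, both in pH 6.5 buffer.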
# [2] = biological target: T2, human TDO (TDO-expressing HEK293 cells) (Homo sapiens, UniProt P48775); assay: Cell based kynurenine assay, TDO-expressing HEK293 cell clones; conditions: TDO-expressing HEK293 cells, 24 hours incubation; geometric mean; read-out: HEK293 TDO Kynurenine GMean IC50 (μM) (Cellular Assay)
# T2 construct: expressed in transfected cells
# T2 sequence (P48775 whole entry): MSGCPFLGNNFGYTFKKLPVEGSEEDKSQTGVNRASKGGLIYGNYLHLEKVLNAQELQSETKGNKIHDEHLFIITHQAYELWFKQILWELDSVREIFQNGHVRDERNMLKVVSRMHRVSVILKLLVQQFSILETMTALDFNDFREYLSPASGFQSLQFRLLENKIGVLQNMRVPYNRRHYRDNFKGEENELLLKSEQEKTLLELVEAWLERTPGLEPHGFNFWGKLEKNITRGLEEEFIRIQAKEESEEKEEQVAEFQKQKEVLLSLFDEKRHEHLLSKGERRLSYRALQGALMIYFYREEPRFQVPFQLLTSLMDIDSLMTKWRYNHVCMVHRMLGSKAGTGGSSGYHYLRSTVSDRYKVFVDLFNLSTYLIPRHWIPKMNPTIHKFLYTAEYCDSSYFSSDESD
# Method in brief: (§2)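 Kynurenine in culture supernatant read after 24 h compound exposure of HEK293 cells stably expressing human IDO1 or TDO. IC50 from nonlinear regression of % inhibition relative to 0.2% DMSO cell (high) and media-only (low) controls.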
# [3] = biological target: T3, Human Tryptophan 2,3-dioxygenase (TDO) (Homo sapiens, UniProt P48775); assay: Human TDO enzymatic assay (kynurenine level); format: biochemical; conditions: 1 nM TDO, 350 μM L-Trp; geometric mean; read-out: TDO GMean: IC50 (μM) (Biochemical Assay)
# T3 construct: His tag (N); made in house; host or cells: E. coli
# T3 sequence (P48775 whole entry): as above
# Method in brief: as §1
# [4] = biological target: T4, human IDO (IDO1-expressing HEK293 cells) (Homo sapiens, UniProt P14902); assay: Cell based kynurenine assay, IDO1-expressing HEK293 cell clones; conditions: IDO1-expressing HEK293 cells, 24 hours incubation; geometric mean; read-out: HEK293 IDO1 Kynurenine GMean IC50 (μM) (Cellular Assay)
# T4 construct: expressed in transfected cells
# T4 sequence (P14902 whole entry): as the sequence (P14902 whole entry) above
# Method in brief: as §2
SMILES,IC50 [1] [µM],IC50 [2] [µM],IC50 [3] [µM],IC50 [4] [µM]
"CC(=O)N1CCC(C(F)(F)C(O)c2c(F)c(Cl)cc3cn[nH]c23)CC1 (stereo not drawn) [Compound P-0128, 1-(4-(2-(5-chloro-6-fluoro-1H-indazol-7-yl)-1,1-difluoro-2-hydroxyethyl)piperidin-1-yl)ethan-l-one]",0.0001 to 10,0.0001 to 10,0.0001 to 10,0.0001 to 10
"CC(=O)N1CCC(C(F)(F)C(O)c2c3c(cc4cn[nH]c24)CC3)CC1 (stereo not drawn) [Compound P-0129, 1-(4-(2-(5,6-dihydro-1H-cyclobuta[f]indazol-7-yl)-1,1-difluoro-2-hydroxyethyl)piperidin-1-yl)ethan-l-one]",0.0001 to 10,0.0001 to 10,0.0001 to 10,0.0001 to 10
"CC(=O)N1CCC(C2(C(O)c3cc(Cl)cc4cn[nH]c34)CC2)CC1 (stereo not drawn) [Compound P-0130, 1-(4-(1-((5-chloro-1H-indazol-7-yl)(hydroxy)methyl)cyclopropyl)piperidin-1-yl)ethan-l-one]",0.0001 to 10,0.0001 to 10,0.0001 to 10,0.0001 to 10
"CS(=O)(=O)N1C[C@H]2CC[C@@H](C1)[C@H]2C(F)(F)C(O)c1cc(Cl)cc2cn[nH]c12 (stereo partly drawn) [Compound P-0131, 1-(5-chloro-1H-indazol-7-yl)-2,2-difluoro-2-((1R,5S,8s)-3-(methylsulfonyl)-3-azabicyclo[3.2.l]octan-8-yl)ethan-l-ol]",0.0001 to 10,0.0001 to 10,0.0001 to 10,0.0001 to 10
"CS(=O)(=O)N1C[C@H]2CC[C@@H](C1)[C@@H]2C(F)(F)C(O)c1cc(Cl)cc2cn[nH]c12 (stereo partly drawn) [Compound P-0132, 1-(5-chloro-1H-indazol-7-yl)-2,2-difluoro-2-((1R,5S,8r)-3-(methylsulfonyl)-3-azabicyclo[3.2.l]octan-8-yl)ethan-l-ol]",0.0001 to 10,0.0001 to 10,0.0001 to 10,0.0001 to 10
"OC(c1cc(Cl)cc2cn[nH]c12)C12CCC(O)(CC1)CC2 (stereo not shown) [Compound P-0133, 4-((5-chloro-1H-indazol-7-yl)(hydroxy)methyl)bicyclo[2.2.2]octan-1-ol]",0.0001 to 10,0.0001 to 10,0.0001 to 10,0.0001 to 10
"CNC(=O)N1CCC(C2(C(O)c3cc(Cl)cc4cn[nH]c34)CC2)CC1 (stereo not shown) [Compound P-0134, 4-(1-((5-chloro-1H-indazol-7-yl)(hydroxy)methyl)cyclopropyl)-N-methylpiperidine-1-carboxamide]",0.0001 to 10,0.0001 to 10,0.0001 to 10,0.0001 to 10
"OC(c1cc(Cl)c(F)c2cn[nH]c12)C12CCC(CC1)CC2 (stereo not shown) [Compound P-0135, bicyclo[2.2.2]octan-1-yl(5-chloro-4-fluoro-1H-indazol-7-yl)methanol]",0.0001 to 10,0.0001 to 10,0.0001 to 10,0.0001 to 10
"COC12CCC(C(O)c3cc(Cl)cc4cn[nH]c34)(CC1)CC2 (stereo not shown) [Compound P-0136, (5-chloro-1H-indazol-7-yl)(4-methoxybicyclo[2.2.2]octan-1-yl)methanol]",0.0001 to 10,0.0001 to 10,0.0001 to 10,0.0001 to 10
"COC12CCC(C(O)c3c(F)c(Cl)cc4cn[nH]c34)(CC1)CC2 (stereo not shown) [Compound P-0137, (5-chloro-6-fluoro-1H-indazol-7-yl)(4-methoxybicyclo[2.2.2]octan-1-yl)methanol]",0.0001 to 10,0.0001 to 10,0.0001 to 10,0.0001 to 10
"CC(=O)N1C[C@H]2CC[C@@H](C1)[C@H]2C(F)(F)C(O)c1c(F)c(Cl)cc2cn[nH]c12 (stereo partly drawn) [Compound P-0138, 1-((1R,5S,8s)-8-(2-(5-chloro-6-fluoro-1H-indazol-7-yl)-1,1-difluoro-2-hydroxyethyl)-3-azabicyclo[3.2.l]octan-3-yl)ethan-l-one]",0.0001 to 10,0.0001 to 10,0.0001 to 10,0.0001 to 10
"CC(=O)N1C[C@H]2CC[C@@H](C1)[C@@H]2C(F)(F)C(O)c1c(F)c(Cl)cc2cn[nH]c12 (stereo partly drawn) [Compound P-0139, 1-((1R,5S,8r)-8-(2-(5-chloro-6-fluoro-1H-indazol-7-yl)-1,1-difluoro-2-hydroxyethyl)-3-azabicyclo[3.2.l]octan-3-yl)ethan-l-one]",0.0001 to 10,0.0001 to 10,0.0001 to 10,0.0001 to 10
"COC(=O)N1CCC(C(F)(F)C(O)c2cc(Cl)cc3cn[nH]c23)CC1 (stereo not shown) [Compound P-0141, methyl 4-(2-(5-chloro-1H-indazol-7-yl)-1,1-difluoro-2-hydroxyethyl)piperidine-1-carboxylate]",0.0001 to 10,0.0001 to 10,0.0001 to 10,0.0001 to 10
"CNC(=O)N1CCC(C(F)(F)C(O)c2cc(Cl)cc3cn[nH]c23)CC1 (stereo not shown) [Compound P-0142, 4-(2-(5-chloro-1H-indazol-7-yl)-1,1-difluoro-hydroxyethyl)-N-methylpiperidine-1-carboxamide]",0.0001 to 10,0.0001 to 10,0.0001 to 10,0.0001 to 10
"O=C(C1CC1)N1CCC(C(F)(F)C(O)c2cc(Cl)cc3cn[nH]c23)CC1 (stereo not shown) [Compound P-0143, (4-(2-(5-chloro-1H-indazol-7-yl)-1,1-difluoro-2-hydroxyethyl)piperidin-1-yl)(cyclopropyl)methanone]",0.0001 to 10,0.0001 to 10,0.0001 to 10,0.0001 to 10
"NC(=O)N1CCC(C(F)(F)C(O)c2cc(Cl)cc3cn[nH]c23)CC1 (stereo not shown) [Compound P-0144, 4-(2-(5-chloro-1H-indazol-7-yl)-1,1-difluoro-2-hydroxyethyl)piperidine-1-carboxamide]",0.0001 to 10,0.0001 to 10,0.0001 to 10,0.0001 to 10
"CC1(C(O)c2cc(Cl)cc3[nH]ncc23)CCCCC1 (stereo not shown) [Compound P-0145, (6-chloro-1H-indazol-4-yl)(1-methylcyclohexyl)methanol]",0.0001 to 10,0.0001 to 10,0.0001 to 10,> 10
"OC(c1cc(Cl)cc2[nH]ncc12)C12CCC(CC1)CC2 (stereo not shown) [Compound P-0146, bicyclo[2.2.2]octan-1-yl(6-chloro-1H-indazol-4-yl)methanol]",0.0001 to 10,0.0001 to 10,0.0001 to 10,> 10
"CCC(=O)N1CCC(C(F)(F)C(O)c2cc(Cl)cc3cn[nH]c23)CC1 (stereo not drawn) [Compound P-0147, 1-(4-(2-(5-chloro-1H-indazol-7-yl)-1,1-difluoro-2-hydroxyethyl)piperidin-1-yl)propan-l-one]",0.0001 to 10,0.0001 to 10,0.0001 to 10,0.0001 to 10
"CC(C)CC(=O)N1CCC(C(F)(F)C(O)c2cc(Cl)cc3cn[nH]c23)CC1 (stereo not drawn) [Compound P-0148, 1-(4-(2-(5-chloro-1H-indazol-7-yl)-1,1-difluoro-2-hydroxyethyl)piperidin-l-yl)-3-methylbutan-1-one]",0.0001 to 10,0.0001 to 10,0.0001 to 10,0.0001 to 10
"O=C(CC1CC1)N1CCC(C(F)(F)C(O)c2cc(Cl)cc3cn[nH]c23)CC1 (stereo not drawn) [Compound P-0149, 1-(4-(2-(5-chloro-1H-indazol-7-yl)-1,1-difluoro-2-hydroxyethyl)piperidin-l-yl)-2-cyclopropylethan-1-one]",0.0001 to 10,0.0001 to 10,0.0001 to 10,0.0001 to 10
"O=C(Nc1ccccc1)N1CCC(C(F)(F)C(O)c2cc(Cl)cc3cn[nH]c23)CC1 (stereo not shown) [Compound P-0150, 4-(2-(5-chloro-1H-indazol-7-yl)-1,1-difluoro-2-hydroxyethyl)-N-phenylpiperidine-1-carboxamide]",0.0001 to 10,0.0001 to 10,0.0001 to 10,0.0001 to 10
"O=C(Nc1ccc(F)cc1)N1CCC(C(F)(F)C(O)c2cc(Cl)cc3cn[nH]c23)CC1 (stereo not shown) [Compound P-0151, 4-(2-(5-chloro-1H-indazol-7-yl)-1,1-difluoro-2-hydroxyethyl)-N-(4-fluorophenyl)piperidine-1-carboxamide]",0.0001 to 10,0.0001 to 10,0.0001 to 10,0.0001 to 10
"O=C(Nc1cccc(F)c1)N1CCC(C(F)(F)C(O)c2cc(Cl)cc3cn[nH]c23)CC1 (stereo not shown) [Compound P-0152, 4-(2-(5-chloro-1H-indazol-7-yl)-1,1-difluoro-2-hydroxyethyl)-N-(3-fluorophenyl)piperidine-1-carboxamide]",0.0001 to 10,0.0001 to 10,0.0001 to 10,0.0001 to 10
"O=C(Nc1ccc(C(F)(F)F)cc1)N1CCC(C(F)(F)C(O)c2cc(Cl)cc3cn[nH]c23)CC1 (stereo not shown) [Compound P-0153, 4-(2-(5-chloro-1H-indazol-7-yl)-1,1-difluoro-2-hydroxyethyl)-N-(4-(trifluoromethyl)phenyl)piperidine-1-carboxamide]",0.0001 to 10,0.0001 to 10,0.0001 to 10,0.0001 to 10
